Measured values: patent US20250136555A1 (HARBIN MEDISAN PHARMACEUTICAL CO., LTD., priority 2022, published 2025)
“Also recorded” adds a separate entry of the source. Where two headings read alike, the source gives them in different places.

Legend:
PPARα = molecular target: T1, PPARα (Homo sapiens, UniProt Q07869); experiment: GAL4 hybrid reporter gene method, PPARα agonistic activity; format: cell-based; settings: Cos-7 cells, Gal4-PPARα (LBD); GW7647 10 nM = 100%; 16 h
T1 construct: expressed in transfected cells; host or cells: COS-7
T1 sequence (Q07869 239-466 limits assumed): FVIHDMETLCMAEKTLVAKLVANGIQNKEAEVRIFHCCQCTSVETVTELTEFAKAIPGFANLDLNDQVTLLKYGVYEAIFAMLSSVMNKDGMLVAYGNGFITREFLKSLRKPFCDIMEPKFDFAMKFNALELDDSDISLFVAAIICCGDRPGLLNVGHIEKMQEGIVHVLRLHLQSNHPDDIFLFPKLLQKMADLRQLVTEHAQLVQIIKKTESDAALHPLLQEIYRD
Description: (§1) Cos-7 cells (African green monkey kidney fibroblasts, commonly used tool cells) were cultured in a 10-cm cell culture dish with a DMEM complete medium containing 10% fetal bovine serum. When growing at a density of about 70%, the cells were ready for transfection. […] The working solution described above was then combined with 8 mL of the DMEM complete medium, and the mixture was added to the cell culture dish for cell transfection. After 4 h of transfection, the cells were digested, resuspended, and seeded into a 96-well plate at 25,000 cells/well. […] 10 μL of a reporter gene detection solution (purchased from Shanghai Beyotime Biological Tech. Co., Ltd.) was added. After the resulting solution was mixed and reacted, biological fluorescence was detected by using a multifunctional microplate reader, and corresponding half maximal effective concentration (EC50) values were calculated according to the detection values. […] Transfection working solutions for different nuclear receptors were prepared and added into COS-7 cells. The preparation method for the transfection working solution was as follows: the constructed pBIND-Gal4-PPARα (LBD) (or pBIND-Gal4-PPARδ (LBD) plasmid or pBIND-Gal4-PPARγ (LBD) plasmid or pBIND-Gal4-RARα (LBD) plasmid or pBIND-Gal4-RARγ (LBD) plasmid or pBIND-Gal4-RARβ (LBD) plasmid or pBIND-Gal4-RORα (LBD) plasmid or pBIND-Gal4-RORγ (LBD) plasmid or pBIND-Gal4-RORβ (LBD) plasmid or pBIND-Gal4-FXR (LBD) plasmid or pBIND-Gal4-RXRα.

PPARγ = molecular target: T2, PPARγ (Homo sapiens, UniProt P37231); experiment: GAL4 hybrid reporter gene method, PPARγ agonistic activity; format: cell-based; settings: Cos-7 cells, Gal4-PPARγ (LBD); Rosiglitazone 1 μM = 100%; 16 h
T2 construct: expressed in transfected cells; host or cells: COS-7
T2 sequence (P37231 238-503 limits assumed): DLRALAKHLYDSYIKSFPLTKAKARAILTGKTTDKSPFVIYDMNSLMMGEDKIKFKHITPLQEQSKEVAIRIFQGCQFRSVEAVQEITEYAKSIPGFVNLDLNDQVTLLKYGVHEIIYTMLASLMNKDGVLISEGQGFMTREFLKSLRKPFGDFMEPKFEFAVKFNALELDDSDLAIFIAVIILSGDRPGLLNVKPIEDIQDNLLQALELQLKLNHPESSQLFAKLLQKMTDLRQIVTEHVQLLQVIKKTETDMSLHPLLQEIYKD
Description: as §1

[1] = Metabolic stability in human liver microsomes; format: in vitro ADME
Description: A solution of the compound in acetonitrile at a concentration of 500 μM was prepared and diluted in 0.1 M potassium phosphate solution to obtain a 1.5 μM drug working solution. The drug working solution was co-incubated with a human liver microsome working solution at a final concentration of 0.75 mg/mL and a NADPH solution (at a final concentration of 550 μM), and the incubation was terminated by adding an acetonitrile solution at 0 min, 15 min, 30 min, 45 min, and 60 min, respectively. The remaining amount of the compound remained in the system at each time point was detected by using LC/MS, the absolute value k of the slope was measured by plotting the natural logarithm of the percentage of the remaining amount of the compound over time, and the calculation was performed according to the formula: T1/2 (half-life)=ln2/k=0.693/k.

[2] = Pharmacokinetic evaluation in rats; format: in vivo, SD rats; settings: for AUC(0-inf): read-out: Area under the curve AUC(0-∞); for Tmax: read-out: Peak time Tmax
Description: Animals: 6 SPF-grade male SD rats were purchased from Beijing Vital River Laboratory Animal Technology Co., Ltd.
Grouping: rats were divided into 2 groups, with 3 rats in each group; one group was an oral administration group, and the other group was an intravenous injection group. The dose in the oral administration group was 10 mpk, and the dose in the intravenous injection group was 2 mpk.
Experimental procedures: after rats in the intravenous injection group were administered by tail vein injection, about 0.25 mL of blood was collected from the orbit at 0.083 h, 0.25 h, 0.5 h, 1 h, 2 h, 4 h, 6 h, 8 h, and 24 h, respectively, and then heparin sodium was rapidly added for anticoagulation after blood collection. The blood was placed on ice after collection. Rats in the oral administration group were fasted for 12 h before administration and fed 4 h after administration. After the rats were administered orally, about 0.25 mL of blood was collected from the orbit at 0.083 h, 0.25 h, 0.5 h, 1 h, 2 h, 4 h, 6 h, 8 h, and 24 h, respectively, and then heparin sodium was rapidly added for anticoagulation after blood collection. The blood was placed on ice after collection. All samples were centrifuged at 6000 r/min for 3 min in a low-temperature centrifuge, and plasma was obtained after separation. The content of the compound in the plasma was detected via LC-MS/MS-18, and relevant pharmacokinetic parameters were calculated according to the plasma concentration data of different time points.

[3] = system: hepatic fibrosis model mice; experiment: Tetrachloromethane-induced hepatic fibrosis in mice; format: in vivo, C57 mice
Description: Animals: 30 male C57 mice, SPF grade, 8 weeks old, weighing about 20 g, purchased from Beijing Vital River. All animals maintained a 12-hour alternating circadian rhythm and were given ad libitum access to food and water. […] The mice were all fed food and water normally, and the modeling lasted for 3 weeks. The mice in the model group and each of the administration groups were injected twice a week with a 25% CCl4 oil solution at a dose of 2 mL/kg, and the mice in the control group were injected with an oil solvent with the same volume. The administration was started at the same time of molding. […] After 3 weeks of administration, the mice were all fed food and water normally. Each group of mice was weighed every day, and their body weight, hair, feces, and activities were carefully observed and recorded. Twenty-four hours after the sixth injection of CCl4, the mice were dissected for sampling. Blood was collected from the orbit, the mice were euthanized, and the liver was collected. The right lobular tissue of the liver was fixed with 4% paraformaldehyde and used for sectioning followed by HE and sirius red staining. Part of liver tissues were divided into 3 parts and snap-frozen in liquid nitrogen for subsequent assays of other indexes. The pre-treated tissue was sent to Wuhan Servicebio Technology Co., Ltd. for preparing HE-stained sections and sirius red-stained sections. The liver tissue stored at −80° C. was taken and placed in liquid nitrogen, and about 200 mg of liver tissue was rapidly cut off. Hydroxyproline in the liver tissue was assayed according to the method in the product's instruction (Beijing Solarbio Science & Technology Co., Ltd., BC0255).

[4] = human liver microsomes 0.75 mg/mL, NADPH
[5] = male, SD, rat, plasma, 2 mg/kg, intravenous injection, 2 mpk
[6] = male, SD, rat, plasma, 10 mg/kg, oral administration, 10 mpk

EC50 (PPARα): 0.7 nM
EC50 (PPARγ): 1660 nM
metabolic stability in human liver microsomes ([1]; human liver microsomes): very good metabolic stability
CLint scaled [1, 4]: 6.2 mL/min/kg
half-life [1, 4]: > 2 h
pharmacokinetic properties ([2]; in vivo): good pharmacokinetic properties
Half-life T1/2 ([2]; intravenous injection, 2 mpk): 4.82 ± 1.05 h
Peak concentration Cmax ([2]; intravenous injection, 2 mpk): 4306.67 ± 1546.13 ng/mL
AUC(0-inf) [2, 5]: 4250 ± 1240 ng·h/mL
Tmax [2, 5]: 0.08 h
AUC(0-inf) [2, 6]: 22300 ± 3550 ng·h/mL
bioavailability ([2]; male, SD, rat, plasma, 10 mg/kg, oral administration, 10 mpk, read-out: Bioavailability F (%)): 104.7 ± 0.17%
Tmax [2, 6]: 2.25 ± 3.25 h
Half-life T1/2 ([2]; oral administration, 10 mpk): 6.72 ± 1.39 h
Peak concentration Cmax ([2]; oral administration, 10 mpk): 2816.67 ± 1020.41 ng/mL
SMILES: Cc1cc(CN2C(=O)CN(c3ccc(C(F)(F)F)cc3)C2=O)cc(C)c1OC(C)(C)C(=O)O [Compound 1, 2-(4-((2,5-Dioxo-3-(4-(trifluoromethyl)phenyl)imidazolidin-1-yl)methyl)-2,6-dimethylphenoxy)-2-methylpropionic Acid]
PPARα EC50 (nM) (PPARα): picomolar levels; also recorded: low nanomolar levels
collagen deposition in liver, sirius red staining (FIG. 15) ([3]; CCl4 model): significantly reduce collagen deposition
effect on the hepatic fibrosis mouse model (conclusion) ([3]; CCl4 model): protective effect
inflammatory infiltration in liver, HE staining (FIG. 14) ([3]; CCl4 model): reduce inflammatory infiltration
hydroxyproline content in the liver (FIG. 13) ([3]; CCl4 model, 0.03 and 0.1 mg/kg intragastric daily, 3 weeks): dose-dependently reduce the hydroxyproline content
improving effect on collagen deposition versus GFT505 ([3]; compound 1 0.1 mg/kg vs GFT505 10 mg/kg): superior to that of GFT505 at 10 mg/kg
effect on hydroxyproline content versus GFT505 ([3]; compound 1 0.1 mg/kg vs GFT505 at 30 mg/kg (so in the source)): superior to that of GFT505 at 30 mg/kg
